From ChEMBL document CHEMBL3991601, “The target landscape of clinical kinase drugs” (Science, 2017)
Activity calls are given as the source filed them.

How the values were obtained:
Activin receptor type-1B = target: T1, Activin receptor type-1B (Homo sapiens, UniProt P36896)
T1 sequence (P36896 whole entry): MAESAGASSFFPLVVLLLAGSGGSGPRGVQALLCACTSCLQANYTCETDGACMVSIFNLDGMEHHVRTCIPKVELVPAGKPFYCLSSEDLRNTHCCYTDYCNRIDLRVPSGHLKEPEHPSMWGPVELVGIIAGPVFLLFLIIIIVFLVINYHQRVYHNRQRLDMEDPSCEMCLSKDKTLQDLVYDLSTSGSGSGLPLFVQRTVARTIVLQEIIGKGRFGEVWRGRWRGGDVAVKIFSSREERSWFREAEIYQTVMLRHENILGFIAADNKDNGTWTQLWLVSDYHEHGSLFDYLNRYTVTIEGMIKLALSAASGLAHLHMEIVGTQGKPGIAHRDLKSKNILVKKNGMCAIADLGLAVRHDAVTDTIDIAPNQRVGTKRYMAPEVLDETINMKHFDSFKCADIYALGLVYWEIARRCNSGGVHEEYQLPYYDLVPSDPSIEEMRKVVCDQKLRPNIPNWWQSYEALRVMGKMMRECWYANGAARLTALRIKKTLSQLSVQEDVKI

[1] = target: T2, Serine/threonine-protein kinase Nek2 (Homo sapiens, UniProt P51955)
T2 sequence (P51955 whole entry): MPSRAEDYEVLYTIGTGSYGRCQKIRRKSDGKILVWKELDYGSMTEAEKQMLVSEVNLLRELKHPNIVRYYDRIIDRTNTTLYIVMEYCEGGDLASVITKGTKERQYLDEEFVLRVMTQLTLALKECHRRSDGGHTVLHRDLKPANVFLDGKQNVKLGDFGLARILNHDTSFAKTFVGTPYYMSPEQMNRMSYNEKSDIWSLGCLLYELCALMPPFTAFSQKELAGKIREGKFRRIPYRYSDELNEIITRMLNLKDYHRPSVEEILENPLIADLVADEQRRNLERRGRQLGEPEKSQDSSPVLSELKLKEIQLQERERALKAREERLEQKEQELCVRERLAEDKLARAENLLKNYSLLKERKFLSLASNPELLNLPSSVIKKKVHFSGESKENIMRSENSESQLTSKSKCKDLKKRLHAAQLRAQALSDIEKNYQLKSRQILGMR

[2] = target: T3, Cytochrome c1, heme protein, mitochondrial (Homo sapiens, UniProt P08574)
T3 sequence (P08574 whole entry): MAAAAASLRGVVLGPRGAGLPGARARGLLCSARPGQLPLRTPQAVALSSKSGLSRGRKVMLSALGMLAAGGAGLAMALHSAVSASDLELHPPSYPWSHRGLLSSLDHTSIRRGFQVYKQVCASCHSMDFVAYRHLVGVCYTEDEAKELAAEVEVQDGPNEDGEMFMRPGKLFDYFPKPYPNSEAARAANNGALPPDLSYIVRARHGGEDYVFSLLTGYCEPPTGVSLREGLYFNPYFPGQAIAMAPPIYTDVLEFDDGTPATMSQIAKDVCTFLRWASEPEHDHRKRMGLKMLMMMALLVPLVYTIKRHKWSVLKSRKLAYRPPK

[3] = target: T4, Phenylalanine--tRNA ligase beta subunit (Homo sapiens, UniProt Q9NSD9)
T4 sequence (Q9NSD9 whole entry): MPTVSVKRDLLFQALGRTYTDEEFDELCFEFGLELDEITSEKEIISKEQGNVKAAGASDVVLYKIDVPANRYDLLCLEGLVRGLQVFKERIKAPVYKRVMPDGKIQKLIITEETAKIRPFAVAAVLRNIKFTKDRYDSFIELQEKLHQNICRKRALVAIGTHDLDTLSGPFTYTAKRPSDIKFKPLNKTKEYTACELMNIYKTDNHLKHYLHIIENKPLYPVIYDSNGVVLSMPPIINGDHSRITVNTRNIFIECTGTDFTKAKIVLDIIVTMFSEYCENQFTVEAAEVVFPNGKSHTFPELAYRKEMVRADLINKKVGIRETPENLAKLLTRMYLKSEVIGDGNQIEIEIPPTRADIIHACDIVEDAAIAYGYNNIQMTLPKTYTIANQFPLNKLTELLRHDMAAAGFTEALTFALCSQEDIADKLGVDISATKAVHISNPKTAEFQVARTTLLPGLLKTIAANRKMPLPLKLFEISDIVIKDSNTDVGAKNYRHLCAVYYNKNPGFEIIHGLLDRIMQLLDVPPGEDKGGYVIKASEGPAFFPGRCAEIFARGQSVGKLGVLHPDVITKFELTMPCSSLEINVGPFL
Further: in the data inactive means no Kd found up to 30 µM.

Structure (SMILES)	Kd (Activin receptor type-1B)	Kd [1]	Kd [2]	Kd [3]
O=c1[nH]c([C@@H]2CCCN2)nc2c1oc1ccc(Cl)cc12	> 30 µM (inactive)	> 30 µM (inactive)	> 30 µM (inactive)	
Cn1cc(-c2[nH]c3cc(NC(=O)[C@H](N)C4CCCCC4)cc4c3c2C=NNC4=O)cn1	> 30 µM (inactive)	> 30 µM (inactive)	> 30 µM (inactive)	> 30 µM (inactive)
CCN1CCN(Cc2ccc(Nc3ncc(F)c(-c4cc(F)c5nc(C)n(C(C)C)c5c4)n3)nc2)CC1 [ABEMACICLIB]	> 30 µM (inactive)	> 30 µM (inactive)	> 30 µM (inactive)	> 30 µM (inactive)
Cc1c(NC(=O)OC[C@@H]2COCCN2)cn2ncnc(Nc3ccc4c(cnn4Cc4cccc(F)c4)c3)c12 [AC-480]	> 30 µM (inactive)	> 30 µM (inactive)	> 30 µM (inactive)	> 30 µM (inactive)
C=CCn1c(=O)c2cnc(Nc3ccc(N4CCN(C)CC4)cc3)nc2n1-c1cccc(C(C)(C)O)n1 [ADAVOSERTIB]	> 30 µM (inactive)		> 30 µM (inactive)	> 30 µM (inactive)
CN(C)C/C=C/C(=O)Nc1cc2c(Nc3ccc(F)c(Cl)c3)ncnc2cc1O[C@H]1CCOC1 [AFATINIB]			> 30 µM (inactive)	> 30 µM (inactive)
CCc1cc2c(cc1N1CCC(N3CCOCC3)CC1)C(C)(C)c1[nH]c3cc(C#N)ccc3c1C2=O [ALECTINIB]	> 30 µM (inactive)	> 30 µM (inactive)	> 30 µM (inactive)	> 30 µM (inactive)
COc1ccc2c(OCc3nnc4ccc(-c5ccccc5)nn34)ccnc2c1 [AMG-208]	> 30 µM (inactive)	> 30 µM (inactive)	> 30 µM (inactive)	> 30 µM (inactive)
S=C(NCc1ccc2c(c1)OCO2)N1CCN(c2ncnc3c2oc2ccccc23)CC1 [AMUVATINIB]	> 30 µM (inactive)	> 30 µM (inactive)	> 30 µM (inactive)	> 30 µM (inactive)
NC[C@@](O)(c1ccc(Cl)cc1)c1ccc(-c2cn[nH]c2)cc1 [AT-13148]	> 30 µM (inactive)	> 30 µM (inactive)	> 30 µM (inactive)	> 30 µM (inactive)
CCN(CCCOc1ccc2c(Nc3cc(CC(=O)Nc4cccc(F)c4)n[nH]3)ncnc2c1)CCOP(=O)(O)O [BARASERTIB]	> 30 µM (inactive)		> 30 µM (inactive)	> 30 µM (inactive)
C[C@@]1(C(=O)Nc2ccc(F)nc2)CCCN1c1nc(Nc2cc(C3CC3)n[nH]2)c2cccn2n1 [BMS-754807]			> 30 µM (inactive)	> 30 µM (inactive)
COc1cc2c(Oc3ccc4[nH]c(C)cc4c3F)ncnc2cc1OCCCN1CCCC1 [CEDIRANIB]			> 30 µM (inactive)	> 30 µM (inactive)
Cn1c(=O)n(-c2ccc(C(C)(C)C#N)cc2)c2c3cc(-c4cnc5ccccc5c4)ccc3ncc21 [DACTOLISIB]	> 30 µM (inactive)		> 30 µM (inactive)	> 30 µM (inactive)
O=S(=O)(c1cccc2cnccc12)N1CCCNCC1 [FASUDIL]	> 30 µM (inactive)		> 30 µM (inactive)	> 30 µM (inactive)
C[C@]1(O)C[C@@H](c2nc(-c3ccc4ccc(-c5ccccc5)nc4c3)c3c(N)nccn32)C1 [LINSITINIB]	> 30 µM (inactive)		> 30 µM (inactive)	> 30 µM (inactive)
CC1(C)CNc2cc(NC(=O)c3cccnc3NCc3ccncc3)ccc21 [MOTESANIB]			> 30 µM (inactive)	> 30 µM (inactive)
CN(c1ncccc1CNc1nc(Nc2ccc3c(c2)CC(=O)N3)ncc1C(F)(F)F)S(C)(=O)=O [PF-00562271]	> 30 µM (inactive)		> 30 µM (inactive)	> 30 µM (inactive)
CC(C)CC(=O)Nc1[nH]nc2c1CN(C(=O)C1CCN(C)CC1)C2(C)C [PHA-793887]	> 30 µM (inactive)		> 30 µM (inactive)	0.003 µM
Cn1cnc2c(F)c(Nc3ccc(Br)cc3Cl)c(C(=O)NOCCO)cc21 [SELUMETINIB]			> 30 µM (inactive)	> 30 µM (inactive)
COc1cc2c(N3CCN(C(=O)Nc4ccc(OC(C)C)cc4)CC3)ncnc2cc1OCCCN1CCCCC1 [TANDUTINIB]			> 30 µM (inactive)	0.006 µM
